According to ChEMBL document CHEMBL1201862, “PubChem BioAssay data set” (2004):
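Assay format: 96-well plates, 48-hour exposure. Abbreviation: GI50, concentration required for 50% inhibition of growth.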 Calls of active or inactive are those of the source. No stated cut-off is given here; in the data, active = GI50 up to about 1.1 µM and inactive = higher.

Experiments:
Assay in all cases: NCI anticancer screen, dose series, 48 h
786-0 = test system: 786-0
A498 = test system: A498
ACHN = test system: ACHN
HCT-15 = test system: HCT-15
IGROV-1 = test system: IGROV-1
MOLT-4 = test system: MOLT-4
Malme-3M = test system: Malme-3M
NCI-H226 = test system: NCI-H226
NCI-H23 = test system: NCI-H23
NCI-H522 = test system: NCI-H522
SF-539 = test system: SF-539
SK-MEL-28 = test system: SK-MEL-28
SN12C = test system: SN12C
UACC-62 = test system: UACC-62
UO-31 = test system: UO-31
RXF 393 = test system: RXF 393
SNB-19 = test system: SNB-19

Row | SMILES | GI50 (786-0) | GI50 (A498) | GI50 (ACHN) | GI50 (HCT-15) [µM] | GI50 (IGROV-1) | GI50 (MOLT-4) | GI50 (Malme-3M) | GI50 (NCI-H226) | GI50 (NCI-H23) | GI50 (NCI-H522) | GI50 (SF-539) | GI50 (SK-MEL-28) | GI50 (SN12C) | GI50 (UACC-62) | GI50 (UO-31) | GI50 (RXF 393) | GI50 (SNB-19)
1 | COc1cc2c(c(O)c1C)C(=O)CC(c1ccccc1)O2 (configuration not stated) | 59.7 µM (inactive) | 64.1 µM (inactive) | 43.7 µM (inactive) | 66.4 | 61.9 µM (inactive) | 32.8 µM (inactive) | 91.4 µM (inactive) | 18.4 µM (inactive) | 22.4 µM (inactive) | 50.2 µM (inactive) | > 100 µM (inactive) | > 100 µM (inactive) | 37.5 µM (inactive) | 47.9 µM (inactive) | 23 µM (inactive) | – | –
2 | O=C(O)C1=C(Cl)c2ccccc2S1(=O)=O | > 100 µM (inactive) | – | – | > 100 | > 100 µM (inactive) | > 100 µM (inactive) | > 100 µM (inactive) | – | > 100 µM (inactive) | 19.8 µM (inactive) | – | > 100 µM (inactive) | > 100 µM (inactive) | > 100 µM (inactive) | > 100 µM (inactive) | > 100 µM (inactive) | > 100 µM (inactive)
3 | O=C1C(C2=[N+]([O-])c3ccccc3C2=O)=[N+]([O-])c2ccccc21 | 20.6 µM (inactive) | 25.4 µM (inactive) | 24.8 µM (inactive) | – | 32.1 µM (inactive) | 15.3 µM (inactive) | – | 25.5 µM (inactive) | 23.9 µM (inactive) | – | 20.5 µM (inactive) | 42.9 µM (inactive) | – | > 10 µM (inactive) | 43.1 µM (inactive) | 31.9 µM (inactive) | 46.7 µM (inactive)
4 | Cc1ccc(Cn2c(C)nc3c2C(=O)c2ccccc2C3=O)cc1 | 2.18 µM (inactive) | – | 6.22 µM (inactive) | 0.619 | 5.45 µM (inactive) | 0.64 µM (active) | 10.9 µM (inactive) | 6.9 µM (inactive) | 5.21 µM (inactive) | 3.14 µM (inactive) | 1.32 µM (inactive) | 23.5 µM (inactive) | 6.18 µM (inactive) | 1.12 µM (inactive) | 6.32 µM (inactive) | 11.4 µM (inactive) | 11.6 µM (inactive)
5 | COc1cc(Nc2nc3ccccc3nc2-c2cccs2)cc(OC)c1OC | 22.4 µM (inactive) | – | 16.4 µM (inactive) | 19 | – | 12.9 µM (inactive) | 67.9 µM (inactive) | 66.7 µM (inactive) | 50.6 µM (inactive) | – | 40.6 µM (inactive) | 52.1 µM (inactive) | 30.9 µM (inactive) | 36.2 µM (inactive) | > 10 µM (inactive) | 16.6 µM (inactive) | 56.9 µM (inactive)
6 | C/C(=N\NC(N)=S)c1ccc(C)c(C)c1 | 44.6 µM (inactive) | 66.7 µM (inactive) | 59.2 µM (inactive) | 58.5 | 25.4 µM (inactive) | 15.8 µM (inactive) | 33.3 µM (inactive) | 51.2 µM (inactive) | 85.7 µM (inactive) | – | 19.9 µM (inactive) | > 100 µM (inactive) | 49.9 µM (inactive) | 28.4 µM (inactive) | 52.1 µM (inactive) | 23 µM (inactive) | –
7 | CC1(C)CC(/C=C2/OC(=O)c3ccccc32)=C(C#N)C(=O)O1 | > 100 µM (inactive) | – | > 100 µM (inactive) | > 100 | > 100 µM (inactive) | > 100 µM (inactive) | > 100 µM (inactive) | > 100 µM (inactive) | > 100 µM (inactive) | > 100 µM (inactive) | > 100 µM (inactive) | > 100 µM (inactive) | > 100 µM (inactive) | > 100 µM (inactive) | > 100 µM (inactive) | – | > 100 µM (inactive)
8 | COc1ccc(/C(=N\NC(=O)C(N)=O)C(c2ccc(OC)cc2)C2(O)C(=O)Nc3c(Cl)cccc32)cc1 (configuration not stated) | 74.8 µM (inactive) | – | > 100 µM (inactive) | – | > 100 µM (inactive) | 82.4 µM (inactive) | > 100 µM (inactive) | > 100 µM (inactive) | > 100 µM (inactive) | – | – | > 100 µM (inactive) | > 100 µM (inactive) | > 100 µM (inactive) | > 100 µM (inactive) | > 100 µM (inactive) | > 100 µM (inactive)
9 | Cc1cc(O)nc(NNC(C#N)c2ccco2)n1 (configuration not stated) | > 100 µM (inactive) | – | > 100 µM (inactive) | > 100 | > 100 µM (inactive) | > 100 µM (inactive) | > 100 µM (inactive) | > 100 µM (inactive) | > 100 µM (inactive) | > 100 µM (inactive) | > 100 µM (inactive) | > 100 µM (inactive) | > 100 µM (inactive) | > 100 µM (inactive) | > 100 µM (inactive) | > 100 µM (inactive) | –
10 | CC(=O)Oc1cc(OC(C)=O)c(OC(C)=O)c2c1CC1C(=O)C3(CCc4ccccc43)C(=O)C1C2 (configuration not stated) | 13.6 µM (inactive) | – | 13.4 µM (inactive) | 18.1 | 19.8 µM (inactive) | – | 7.57 µM (inactive) | – | 18.4 µM (inactive) | – | – | 18.2 µM (inactive) | 17.3 µM (inactive) | 14.5 µM (inactive) | 22.1 µM (inactive) | 15 µM (inactive) | –
11 | Cc1cc(O)nc(NNC(C#N)c2cccc([N+](=O)[O-])c2)n1 (configuration not stated) | > 100 µM (inactive) | – | > 100 µM (inactive) | > 100 | > 100 µM (inactive) | > 100 µM (inactive) | > 100 µM (inactive) | > 100 µM (inactive) | > 100 µM (inactive) | > 100 µM (inactive) | > 100 µM (inactive) | > 100 µM (inactive) | > 100 µM (inactive) | > 100 µM (inactive) | 73.1 µM (inactive) | > 100 µM (inactive) | –
12 | COc1cc(C(C#N)NNC(=O)Cc2ccccc2)cc(OC)c1OC (configuration not stated) | > 100 µM (inactive) | – | > 100 µM (inactive) | > 100 | > 100 µM (inactive) | > 100 µM (inactive) | > 100 µM (inactive) | > 100 µM (inactive) | > 100 µM (inactive) | > 100 µM (inactive) | > 100 µM (inactive) | > 100 µM (inactive) | > 100 µM (inactive) | > 100 µM (inactive) | 72.3 µM (inactive) | > 100 µM (inactive) | –
13 | CCOC1c2cc(C(C)C)c(O)c(O)c2[C@@]23CCCC(C)(C)C2C1OC3=O (some centres not stated) | > 100 µM (inactive) | – | 78 µM (inactive) | 91 | > 100 µM (inactive) | 50 µM (inactive) | > 100 µM (inactive) | > 100 µM (inactive) | > 100 µM (inactive) | 30.6 µM (inactive) | > 100 µM (inactive) | > 100 µM (inactive) | 94 µM (inactive) | 83.2 µM (inactive) | 35.8 µM (inactive) | 30.3 µM (inactive) | > 100 µM (inactive)
14 | C/C(=C(/C)c1cc[n+](C)cc1)c1cc[n+](C)cc1 | > 75 µM (inactive) | > 75 µM (inactive) | > 75 µM (inactive) | 52.7 | 34.4 µM (inactive) | > 75 µM (inactive) | > 75 µM (inactive) | – | > 75 µM (inactive) | 18.8 µM (inactive) | > 75 µM (inactive) | > 75 µM (inactive) | > 75 µM (inactive) | > 75 µM (inactive) | > 75 µM (inactive) | > 75 µM (inactive) | > 75 µM (inactive)
